Assay results published in PubChem BioAssay AID248 (DTP/NCI, 2004).
“And” between values parts separate entries of the source, which are not always exact repeats. Equal values may be shown once. Inconclusive results and toxic doses are left out. Cut-off read from the data, not from the text of the source: active = T/C of 150% or more; inactive = T/C below 125%.

System: L1210 leukemia ip in BDF1 mice, survival T/C
Test: NCI In Vivo Anticancer Drug Screen. Data for tumor model L1210 Leukemia (intraperitoneal) in B6D2F1 (BDF1) mice
Details: endpoint: mean survival time, higher = longer survival
Method in brief: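 Ratio derived from survival: compound-dosed mice over vehicle-dosed mice, all bearing a transplantable tumor.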

[1] = dose: 50.0 mg/kg/injection, schedule: Q01DX001 (ip), vehicle: other
[2] = dose: 100.0 mg/kg/injection, schedule: Q01DX001 (ip), vehicle: Klucel (hydroxypropylcellulose) (HPC)
[3] = dose: 100.0 mg/kg/injection, schedule: Q01DX001 (ip), vehicle: other
[4] = dose: 100.0 mg/kg/injection, schedule: Q01DX009 (ip), vehicle: Klucel (hydroxypropylcellulose) (HPC)
[5] = dose: 200.0 mg/kg/injection, schedule: Q01DX001 (ip), vehicle: Klucel (hydroxypropylcellulose) (HPC)
[6] = dose: 200.0 mg/kg/injection, schedule: Q01DX001 (ip), vehicle: other
[7] = dose: 200.0 mg/kg/injection, schedule: Q01DX009 (ip), vehicle: Klucel (hydroxypropylcellulose) (HPC)
[8] = dose: 400.0 mg/kg/injection, schedule: Q01DX001 (ip), vehicle: Klucel (hydroxypropylcellulose) (HPC)
[9] = dose: 400.0 mg/kg/injection, schedule: Q01DX001 (ip), vehicle: other
[10] = dose: 400.0 mg/kg/injection, schedule: Q01DX009 (ip), vehicle: Klucel (hydroxypropylcellulose) (HPC)
[11] = dose: 100.0 mg/kg/injection, schedule: Q01DX001 (ip), vehicle: saline
[12] = dose: 100.0 mg/kg/injection, schedule: Q04DX003 (ip), vehicle: saline
[13] = dose: 200.0 mg/kg/injection, schedule: Q01DX001 (ip), vehicle: saline
[14] = dose: 200.0 mg/kg/injection, schedule: Q04DX003 (ip), vehicle: saline
[15] = dose: 400.0 mg/kg/injection, schedule: Q01DX001 (ip), vehicle: saline
[16] = dose: 400.0 mg/kg/injection, schedule: Q04DX003 (ip), vehicle: saline
[17] = dose: 50.0 mg/kg/injection, schedule: Q01DX001 (ip), vehicle: saline with Tween-80
[18] = dose: 100.0 mg/kg/injection, schedule: Q01DX001 (ip), vehicle: saline with Tween-80
[19] = dose: 50.0 mg/kg/injection, schedule: Q01DX001 (ip), vehicle: saline
[20] = dose: 100.0 mg/kg/injection, schedule: Q04DX003 (ip), vehicle: Klucel (hydroxypropylcellulose) (HPC)
[21] = dose: 200.0 mg/kg/injection, schedule: Q04DX003 (ip), vehicle: Klucel (hydroxypropylcellulose) (HPC)
[22] = dose: 400.0 mg/kg/injection, schedule: Q04DX003 (ip), vehicle: Klucel (hydroxypropylcellulose) (HPC)
[23] = dose: 200.0 mg/kg/injection, schedule: Q04DX003 (ip), vehicle: saline with Tween-80
[24] = dose: 100.0 mg/kg/injection, schedule: Q04DX003 (ip), vehicle: saline with Tween-80
[25] = dose: 400.0 mg/kg/injection, schedule: Q04DX003 (ip), vehicle: saline with Tween-80
[26] = dose: 100.0 mg/kg/injection, schedule: Q04DX002 (ip), vehicle: saline with Tween-80
[27] = dose: 200.0 mg/kg/injection, schedule: Q04DX002 (ip), vehicle: saline with Tween-80
[28] = dose: 200.0 mg/kg/injection, schedule: Q01DX001 (ip), vehicle: saline with Tween-80
[29] = dose: 400.0 mg/kg/injection, schedule: Q01DX001 (ip), vehicle: saline with Tween-80

Measured: T/C

CCCCC(=O)c1cc(OC)cc(OC)c1
inactive: [1] 109 % of control | [2] 95 % of control | [3] 102 % of control | [4] 97 % of control | [5] 95 % of control | [6] 104 % of control | [7] 96 % of control | [8] 98 % of control | [9] 91 % of control | [10] 100 % of control

CC(C)NNC(=O)c1cccnc1
inactive: dose: 25.0 mg/kg/injection, schedule: Q01DX009 (ip), vehicle: saline 97 % of control and 108 % of control | dose: 50.0 mg/kg/injection, schedule: Q01DX009 (ip), vehicle: saline 94 % of control and 103 % of control | [11] 95 % of control | [12] 96 % of control | [13] 96 % of control | dose: 200.0 mg/kg/injection, schedule: Q01DX009 (ip), vehicle: saline 94 % of control | [14] 98 % of control | [15] 95 % of control | [16] 96 % of control

COC(=O)c1ccc(N(C)CCC(C)=O)cc1
inactive: [3] 97 % of control | [6] 95 % of control | [9] 106 % of control

COc1cccc(NC(=O)NCCN(C)c2ccccc2)c1
inactive: [4] 104 % of control | [7] 88 % of control | [10] 92 % of control

COc1ccc2c(c1)-c1c(ccc(OC)c1OC(=O)C(=O)c1ccccc1)CC(Cl)N(C)CC2.[O]=[Cr](=[O])([OH])[OH] (stereo not given)
inactive: [12] 89 % of control | [14] 89 % of control | [16] 90 % of control

Nc1nc2nc(CCc3ccccc3)cnc2c(=O)[nH]1
inactive: dose: 25.0 mg/kg/injection, schedule: Q01DX001 (ip), vehicle: saline with Tween-80 96 % of control | [17] 93 % of control | [18] 90 % of control

COB(OC)OC
inactive: [19] 98 % of control | [11] 95 % of control | [13] 101 % of control | [15] 95 % of control

CC(C)CCOC(=O)C1(C)OC1c1ccccc1 (stereo not given)
inactive: dose: 100.0 mg/kg/injection, schedule: Q04DX002 (ip), vehicle: saline 101 % of control | dose: 200.0 mg/kg/injection, schedule: Q04DX002 (ip), vehicle: saline 97 % of control | dose: 400.0 mg/kg/injection, schedule: Q04DX002 (ip), vehicle: saline 93 % of control

FC(F)(F)c1nc[nH]c1C(F)(F)F
inactive: dose: 6.25 mg/kg/injection, schedule: Q01DX009 (ip), vehicle: water 103 % of control | dose: 12.5 mg/kg/injection, schedule: Q01DX009 (ip), vehicle: water 97 % of control | dose: 25.0 mg/kg/injection, schedule: Q01DX009 (ip), vehicle: water 97 % of control

Cn1c(N)c(N=Cc2ccncc2)c(=O)n(C)c1=O
inactive: [1] 103 % of control | [3] 92 % of control | [6] 94 % of control | [9] 97 % of control

N#Cc1c(F)c(F)c(Oc2c(F)c(F)c(Oc3c(F)c(F)c(C#N)c(F)c3F)c(F)c2F)c(F)c1F
inactive: [2] 97 % of control | [20] 94 % of control | [5] 97 % of control | [21] 94 % of control | [8] 89 % of control | [22] 92 % of control

OC1c2ccccc2-c2ccc(N(Cc3ccccc3)Cc3ccccc3)cc21 (stereo not given)
inactive: [23] 87 % of control

NNC(=O)c1nc2ccccc2s1
inactive: dose: 75.0 mg/kg/injection, schedule: Q01DX001 (ip), vehicle: other 96 % of control | dose: 150.0 mg/kg/injection, schedule: Q01DX001 (ip), vehicle: other 98 % of control

COC(=O)c1c(Cl)c(Cl)c(Cl)c(Cl)c1C(=O)OC
inactive: [4] 96 % of control | dose: 100.0 mg/kg/injection, schedule: Q01DX009 (ip), vehicle: saline with Tween-80 96 % of control | [20] 95 % of control | [24] 100 % of control | [7] 102 % of control | dose: 200.0 mg/kg/injection, schedule: Q01DX009 (ip), vehicle: saline with Tween-80 91 % of control | [21] 96 % of control | [23] 100 % of control | [10] 107 % of control | [22] 95 % of control

c1cc[c]([Sn]([O][Sn]([c]2ccccc2)([c]2ccccc2)[c]2ccccc2)([c]2ccccc2)[c]2ccccc2)cc1
inactive: dose: 5.0 mg/kg/injection, schedule: Q01DX001 (ip), vehicle: saline 102 % of control | dose: 10.0 mg/kg/injection, schedule: Q01DX001 (ip), vehicle: saline 100 % of control | dose: 20.0 mg/kg/injection, schedule: Q01DX001 (ip), vehicle: saline 102 % of control | dose: 40.0 mg/kg/injection, schedule: Q01DX001 (ip), vehicle: saline 93 % of control

COc1ccc(OC)c(/C=C(C(=O)O)/C(=C/c2cc(OC)ccc2OC)C(=O)O)c1
inactive: [24] 105 % of control | [23] 102 % of control | [25] 97 % of control

c1ccc(N=Nc2ccnnc2)cc1
inactive: dose: 50.0 mg/kg/injection, schedule: Q04DX002 (ip), vehicle: saline with Tween-80 102 % of control | [26] 91 % of control | [27] 105 % of control

Cn1c2ccccc2c2nnc(SCCN3CCOCC3)nc21
inactive: [26] 97 % of control | [27] 93 % of control | dose: 400.0 mg/kg/injection, schedule: Q04DX002 (ip), vehicle: saline with Tween-80 101 % of control

Cc1c(C(=O)OCCCl)c(=O)n(-c2ccccc2)n1C
inactive: [11] 98 % of control | [13] 98 % of control

CCN(CC)CCOC(=O)C(c1ccccc1)c1ccccc1
inactive: dose: 75.0 mg/kg/injection, schedule: Q01DX001 (ip), vehicle: saline 104 % of control | dose: 150.0 mg/kg/injection, schedule: Q01DX001 (ip), vehicle: saline 94 % of control

Cc1ccnc(NC(=O)CCc2ccccc2)c1
inactive: dose: 100.0 mg/kg/injection, schedule: Q04DX002 (ip), vehicle: Klucel (hydroxypropylcellulose) (HPC) 95 % of control | dose: 200.0 mg/kg/injection, schedule: Q04DX002 (ip), vehicle: Klucel (hydroxypropylcellulose) (HPC) 100 % of control | dose: 400.0 mg/kg/injection, schedule: Q04DX002 (ip), vehicle: Klucel (hydroxypropylcellulose) (HPC) 92 % of control

CN(C)N=Nc1ccc(S(N)(=O)=O)cc1
inactive: [17] 98 % of control | dose: 50.0 mg/kg/injection, schedule: Q04DX003 (ip), vehicle: saline with Tween-80 103 % of control and 105 % of control | [18] 102 % of control | [24] 103 % of control and 105 % of control | [28] 104 % of control | [23] 105 % of control | [29] 105 % of control | [25] 106 % of control and 112 % of control

CCCCCCCC(O)CCCC (stereo not given)
inactive: [4] 100 % of control | [20] 95 % of control | [7] 104 % of control | [21] 103 % of control | [10] 104 % of control | [22] 98 % of control

O=C1CSC(=O)N1c1ccccc1
inactive: [18] 107 % of control | [12] 93 % of control | [28] 94 % of control | [14] 100 % of control | [29] 98 % of control | [16] 89 % of control

O=N[O-].O=N[O-].[Co].[NH-]CC[N-]CC[N-]CC[NH-]
inactive: [19] 104 % of control
